Measured values reported in patent publication US12304890B2, “R-type pyridyloxycarboxylic acid, salt and ester derivative thereof, and preparation method therefor, and herbicidal composition and application thereof” (Qingdao Kingagroot Chemical Compound Co., Ltd., priority 2018, dated 2025).

System: Monocotyledonous and dicotyledonous weed seeds and main crop seeds
Experiment: Post-emergence test experiment, other weeds and crops (Table 4, 1000 g a.i./ha)
Assay type: in vivo
Settings: 3 weeks in greenhouse, fresh weight inhibition
Method: The above described growth inhibition rate is fresh weight inhibition rate.
Post-emergence test experiment: Monocotyledonous and dicotyledonous weed seeds and main crop seeds (i. e. wheat, corn, rice, soybean, cotton, oilseed, millet and sorghum.) were put into a plastic pot loaded with soil. Then covered with 0.5-2 cm soil, the seeds were allowed to grow in good greenhouse environment. The test plants were treated at 2-3 leaf stage 2 weeks after sowing. The test compounds of the invention were dissolved with acetone respectively, then added with tween-80, and using 1.5 liters per hectare of an emulsible concentrate of methyl oleate as a synergist, and diluted by certain amount of water to certain concentration. The solution was sprayed to the plants with a sprayer.

Row | SMILES | Activity level (growth inhibition rate), Abutilon theophrasti Medic. | Activity level (growth inhibition rate), Galium aparine | Activity level (growth inhibition rate), Monochoria Vaginalis
1 | COC(=O)C(CF)Oc1nc(F)c(Cl)c(N)c1Cl (stereo not drawn) [Compound 2-43] | 5 (Level 5: the growth inhibition rate is greater than 85%) | 5 (Level 5: the growth inhibition rate is greater than 85%) | 5 (Level 5: the growth inhibition rate is greater than 85%)
2 | COC(=O)C(Oc1nc(F)c(Cl)c(N)c1Cl)C(F)F (stereo not drawn) [Compound 2-44] | 5 (Level 5: the growth inhibition rate is greater than 85%) | 5 (Level 5: the growth inhibition rate is greater than 85%) | 5 (Level 5: the growth inhibition rate is greater than 85%)
3 | C=C[C@@H](Oc1nc(F)c(Cl)c(N)c1Cl)C(=O)OC [Compound 2-45] | 5 (Level 5: the growth inhibition rate is greater than 85%) | 5 (Level 5: the growth inhibition rate is greater than 85%) | 5 (Level 5: the growth inhibition rate is greater than 85%)
4 | C#CC(Oc1nc(F)c(Cl)c(N)c1Cl)C(=O)OC (stereo not drawn) [Compound 2-46] | 5 (Level 5: the growth inhibition rate is greater than 85%) | 5 (Level 5: the growth inhibition rate is greater than 85%) | 5 (Level 5: the growth inhibition rate is greater than 85%)
5 | COC(=O)C(Oc1nc(F)c(Cl)c(N)c1Cl)C(=O)OC [Compound 2-47] | 5 (Level 5: the growth inhibition rate is greater than 85%) | 5 (Level 5: the growth inhibition rate is greater than 85%) | 5 (Level 5: the growth inhibition rate is greater than 85%)
6 | COC(=O)C(C=O)Oc1nc(F)c(Cl)c(N)c1Cl (stereo not drawn) [Compound 2-48] | 5 (Level 5: the growth inhibition rate is greater than 85%) | 5 (Level 5: the growth inhibition rate is greater than 85%) | 5 (Level 5: the growth inhibition rate is greater than 85%)
7 | COC(=O)C(CO)Oc1nc(F)c(Cl)c(N)c1Cl (stereo not drawn) [Compound 2-49] | 5 (Level 5: the growth inhibition rate is greater than 85%) | 5 (Level 5: the growth inhibition rate is greater than 85%) | 5 (Level 5: the growth inhibition rate is greater than 85%)
8 | COC(=O)C(Oc1nc(F)c(Cl)c(N)c1Cl)[N+](=O)[O-] (stereo not drawn) [Compound 2-50] | 5 (Level 5: the growth inhibition rate is greater than 85%) | 5 (Level 5: the growth inhibition rate is greater than 85%) | 5 (Level 5: the growth inhibition rate is greater than 85%)
9 | COC(=O)C(F)Oc1nc(F)c(Cl)c(N)c1Cl (stereo not drawn) [Compound 2-51] | 5 (Level 5: the growth inhibition rate is greater than 85%) | 5 (Level 5: the growth inhibition rate is greater than 85%) | 5 (Level 5: the growth inhibition rate is greater than 85%)
10 | COC(=O)C(Br)Oc1nc(F)c(Cl)c(N)c1Cl (stereo not drawn) [Compound 2-52] | 5 (Level 5: the growth inhibition rate is greater than 85%) | 5 (Level 5: the growth inhibition rate is greater than 85%) | 5 (Level 5: the growth inhibition rate is greater than 85%)
11 | COC(=O)C(Cl)Oc1nc(F)c(Cl)c(N)c1Cl (stereo not drawn) [Compound 2-53] | 5 (Level 5: the growth inhibition rate is greater than 85%) | 5 (Level 5: the growth inhibition rate is greater than 85%) | 5 (Level 5: the growth inhibition rate is greater than 85%)
12 | COC(=O)C(N)Oc1nc(F)c(Cl)c(N)c1Cl (stereo not drawn) [Compound 2-56] | 5 (Level 5: the growth inhibition rate is greater than 85%) | 5 (Level 5: the growth inhibition rate is greater than 85%) | 5 (Level 5: the growth inhibition rate is greater than 85%)
13 | COC(=O)C(Oc1nc(F)c(Cl)c(N)c1Cl)SC (stereo not drawn) [Compound 2-57] | 5 (Level 5: the growth inhibition rate is greater than 85%) | 5 (Level 5: the growth inhibition rate is greater than 85%) | 5 (Level 5: the growth inhibition rate is greater than 85%)
14 | COC(=O)C(OC)Oc1nc(F)c(Cl)c(N)c1Cl (stereo not drawn) [Compound 2-58] | 5 (Level 5: the growth inhibition rate is greater than 85%) | 5 (Level 5: the growth inhibition rate is greater than 85%) | 5 (Level 5: the growth inhibition rate is greater than 85%)
15 | COC(=O)C(CN(C)C)Oc1nc(F)c(Cl)c(N)c1Cl (stereo not drawn) [Compound 2-59] | 5 (Level 5: the growth inhibition rate is greater than 85%) | 5 (Level 5: the growth inhibition rate is greater than 85%) | 5 (Level 5: the growth inhibition rate is greater than 85%)
16 | COC(=O)C(CC#N)Oc1nc(F)c(Cl)c(N)c1Cl (stereo not drawn) [Compound 2-60] | 5 (Level 5: the growth inhibition rate is greater than 85%) | 5 (Level 5: the growth inhibition rate is greater than 85%) | 5 (Level 5: the growth inhibition rate is greater than 85%)
17 | COC(=O)C(C#N)Oc1nc(F)c(Cl)c(N)c1Cl (stereo not drawn) [Compound 2-61] | 5 (Level 5: the growth inhibition rate is greater than 85%) | 5 (Level 5: the growth inhibition rate is greater than 85%) | 5 (Level 5: the growth inhibition rate is greater than 85%)
18 | COC(=O)C(Oc1nc(F)c(Cl)c(N)c1Cl)c1ccccc1 (stereo not drawn) [Compound 2-62] | 5 (Level 5: the growth inhibition rate is greater than 85%) | 5 (Level 5: the growth inhibition rate is greater than 85%) | 5 (Level 5: the growth inhibition rate is greater than 85%)
19 | COC(=O)C(Cc1ccccc1)Oc1nc(F)c(Cl)c(N)c1Cl (stereo not drawn) [Compound 2-63] | 5 (Level 5: the growth inhibition rate is greater than 85%) | 5 (Level 5: the growth inhibition rate is greater than 85%) | 5 (Level 5: the growth inhibition rate is greater than 85%)
20 | COC(=O)[C@H](Oc1nc(F)c(Cl)c(N)c1Cl)c1cccc(Cl)c1 [Compound 2-64] | 5 (Level 5: the growth inhibition rate is greater than 85%) | 5 (Level 5: the growth inhibition rate is greater than 85%) | 5 (Level 5: the growth inhibition rate is greater than 85%)
